Reference: article PMC8523698, “Preclinical characterization of an intravenous coronavirus 3CL protease inhibitor for the potential treatment of COVID19” (Nature Communications, 2021)
In brackets after ≈: the same amount, converted by molar mass. Several values for one entry are separate records, joined by “and”; a condition that tells them apart may be missing. Equal values may be shown once. Read-outs that look alike come from different tables or passages of the source.

Experiments:
[1] = test system: SARS-CoV-2 Belgium/GHB-03021/2020 strain; assay: microbe, parasite or virus in culture; type: cell-based; design: Percent Effect: scale not given: direction of the effect not stated beside the values
[2] = test system: HCoV-229E; assay: Viral CPE assay in MRC-5 cells (CellTiter Glo); type: cell-based
[3] = test system: SARS-CoV-2 Washington strain 1 (USA_WA1/2020); type: cell-based
[4] = target: T1, OATP1B3 (Homo sapiens, UniProt Q9NPD5); assay: Transporter inhibition using transfected HEK293 cells; conditions: IC50, Rosuvastatin (0.5 µM)
T1 sequence (Q9NPD5 1-702): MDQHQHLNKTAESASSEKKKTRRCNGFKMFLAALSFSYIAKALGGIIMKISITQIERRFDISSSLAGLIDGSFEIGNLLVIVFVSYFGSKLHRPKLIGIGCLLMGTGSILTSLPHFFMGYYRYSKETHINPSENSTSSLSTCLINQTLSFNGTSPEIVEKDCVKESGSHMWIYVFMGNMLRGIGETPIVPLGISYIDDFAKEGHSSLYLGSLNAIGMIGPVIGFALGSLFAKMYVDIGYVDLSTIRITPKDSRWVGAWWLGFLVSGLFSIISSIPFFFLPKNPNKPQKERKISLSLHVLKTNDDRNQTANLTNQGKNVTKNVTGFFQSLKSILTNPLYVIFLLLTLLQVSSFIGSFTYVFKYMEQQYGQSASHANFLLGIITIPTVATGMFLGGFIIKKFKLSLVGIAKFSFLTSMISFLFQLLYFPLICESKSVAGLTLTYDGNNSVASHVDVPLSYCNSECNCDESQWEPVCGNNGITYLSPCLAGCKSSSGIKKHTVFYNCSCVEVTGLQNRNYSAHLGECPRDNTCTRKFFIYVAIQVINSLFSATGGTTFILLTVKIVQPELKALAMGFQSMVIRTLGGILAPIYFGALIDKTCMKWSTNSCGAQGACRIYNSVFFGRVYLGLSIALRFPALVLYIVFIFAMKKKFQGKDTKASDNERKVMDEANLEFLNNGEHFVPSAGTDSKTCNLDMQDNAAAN

[5] = test system: CYP3A4/5; assay: in vitro; conditions: human, microsomes, pH 7.4, Percent of Control Activity, CYP 3A4/5 (mdz)
[6] = Plasma protein binding by equilibrium dialysis; conditions: monkey plasma, 3.44 uM; for fraction unbound at 6 h, 3.44 uM: plasma
[7] = in vitro; conditions: African green monkey, CC50
[8] = target: T2, OATP1B1 (Homo sapiens, UniProt Q9Y6L6); assay: Transporter inhibition using transfected HEK293 cells; conditions: IC50, Rosuvastatin (0.5 µM)
T2 sequence (Q9Y6L6 1-691): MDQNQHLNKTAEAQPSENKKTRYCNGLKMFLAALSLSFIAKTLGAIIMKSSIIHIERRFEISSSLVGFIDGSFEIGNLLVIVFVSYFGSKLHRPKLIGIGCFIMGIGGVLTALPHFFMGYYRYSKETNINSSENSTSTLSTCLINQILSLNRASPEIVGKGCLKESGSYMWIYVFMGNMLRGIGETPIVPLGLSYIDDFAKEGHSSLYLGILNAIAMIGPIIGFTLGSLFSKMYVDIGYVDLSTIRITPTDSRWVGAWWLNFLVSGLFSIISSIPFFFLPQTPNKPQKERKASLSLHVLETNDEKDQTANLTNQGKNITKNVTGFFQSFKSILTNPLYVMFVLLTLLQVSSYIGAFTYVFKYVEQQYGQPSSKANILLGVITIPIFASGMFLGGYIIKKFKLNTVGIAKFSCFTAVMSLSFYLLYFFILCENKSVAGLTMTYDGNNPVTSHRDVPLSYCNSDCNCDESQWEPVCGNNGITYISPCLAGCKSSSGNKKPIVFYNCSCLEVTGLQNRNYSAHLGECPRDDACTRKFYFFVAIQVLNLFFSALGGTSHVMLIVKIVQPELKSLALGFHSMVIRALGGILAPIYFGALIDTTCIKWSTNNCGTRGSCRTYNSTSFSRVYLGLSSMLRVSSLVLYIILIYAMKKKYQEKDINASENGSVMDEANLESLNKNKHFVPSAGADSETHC

[9] = test system: CYP3A4/5; assay: Time-dependent inhibition of CYP enzymes in human liver microsomes; conditions: pooled HLM
[10] = Solubility measurement

With `COc1cccc2[nH]c(C(=O)N[C@@H](CC(C)C)C(=O)N[C@@H](C[C@@H]3CCNC3=O)C(=O)CO)cc12` [PF-00835231-00] the “Percent Effect” value [1] was 0.59%, the “% Well Effect” value ([2]; 0.000938825 uM, minus efflux inhibitor, EC50 run 17-Apr-2020) was -3.33% and -1.20% and the “% Well Effect” value ([2]; 0.000938825 uM, minus efflux inhibitor, EC50 run 24-Apr-2020) was 15.19% and 11.15%. The “% Well Effect” value ([2]; 0.000949267 uM, minus efflux inhibitor, EC50 run 11-Apr-2020) was 5.04% and 4.22% and -1.30% and -1.77%, the “% Well Effect” value ([2]; 0.00297326 uM, minus efflux inhibitor, EC50 run 17-Apr-2020) was -5.19% and 4.25% and the “% Well Effect” value ([2]; 0.00297326 uM, minus efflux inhibitor, EC50 run 24-Apr-2020) was 5.52% and -0.60%. The “% Well Effect” value ([2]; 0.00300158 uM, minus efflux inhibitor, EC50 run 11-Apr-2020) was 4.34% and 3.84% and 1.15% and -4.56%, the “% Well Effect” value ([2]; 0.007813 uM, minus efflux inhibitor, EC50 run 30-Apr-2020) was 0.98% and 0.83% and the “% Well Effect” value ([2]; 0.00941631 uM, minus efflux inhibitor, EC50 run 17-Apr-2020) was 1.75% and 4.31%. The “% Well Effect” value ([2]; 0.0298215 uM, minus efflux inhibitor, EC50 run 17-Apr-2020) was 23.90% and 29.75%, the “% Well Effect” value ([2]; 0.0298215 uM, minus efflux inhibitor, EC50 run 24-Apr-2020) was -2.80% and 5.98% and the “% Well Effect” value ([2]; 0.0300105 uM, minus efflux inhibitor, EC50 run 11-Apr-2020) was 22.27% and 25.51% and 18.77% and 17.89%. The “% Well Effect” value ([2]; 0.03125 uM, minus efflux inhibitor, EC50 run 30-Apr-2020) was 10.60% and 5.67%, the “% Well Effect” value ([2]; 0.0625 uM, minus efflux inhibitor, EC50 run 30-Apr-2020) was 34.90% and 38.53% and the “% Well Effect” value ([2]; 0.0944446 uM, minus efflux inhibitor, EC50 run 17-Apr-2020) was 86.84% and 95.70%. The “% Well Effect” value ([2]; 0.0944446 uM, minus efflux inhibitor, EC50 run 24-Apr-2020) was 19.60% and 23.25%, the “% Well Effect” value ([2]; 0.0948933 uM, minus efflux inhibitor, EC50 run 11-Apr-2020) was 74.74% and 86.04% and 87.19% and 85.97% and the “% Well Effect” value ([2]; 0.09491 uM, minus efflux inhibitor, EC50 run 3-Apr-2020) was 60.58% and 66.48% and 51.57% and 67.27%. For the same compound, the “% Well Effect” value ([2]; 0.299106 uM, minus efflux inhibitor, EC50 run 17-Apr-2020) was 107.11% and 115.95%, the “% Well Effect” value ([2]; 0.299106 uM, minus efflux inhibitor, EC50 run 24-Apr-2020) was 59.17% and 71.11% and the “% Well Effect” value ([2]; 0.300053 uM, minus efflux inhibitor, EC50 run 11-Apr-2020) was 109.88% and 116.26% and 114.19% and 115.61%. The “% Well Effect” value ([2]; 0.300105 uM, minus efflux inhibitor, EC50 run 3-Apr-2020) was 99.66% and 103.56% and 105.08% and 101.55%, the “% Well Effect” value ([2]; 0.5 uM, minus efflux inhibitor, EC50 run 30-Apr-2020) was 102.45% and 101.06% and the “% Well Effect” value ([2]; 0.947269 uM, minus efflux inhibitor, EC50 run 17-Apr-2020) was 102.69% and 111.34%. For the same compound, the “% Well Effect” value ([2]; 0.947269 uM, minus efflux inhibitor, EC50 run 24-Apr-2020) was 73.36% and 89.87%, the “% Well Effect” value ([2]; 0.948767 uM, minus efflux inhibitor, EC50 run 11-Apr-2020) was 109.36% and 109.78% and 108.04% and 112.87% and the “% Well Effect” value ([2]; 0.948933 uM, minus efflux inhibitor, EC50 run 3-Apr-2020) was 100.40% and 104.08% and 100.39% and 101.88%. For the same compound, the “% Well Effect” value ([2]; 1 uM, minus efflux inhibitor, EC50 run 30-Apr-2020) was 105.73% and 102.25%, the “% Well Effect” value ([2]; 3 uM, minus efflux inhibitor, EC50 run 11-Apr-2020) was 107.90% and 109.07% and 108.64% and 109.54% and the “% Well Effect” value ([2]; 3 uM, minus efflux inhibitor, EC50 run 17-Apr-2020) was 101.53% and 109.98%. For the same compound, the “% Well Effect” value ([2]; 3 uM, minus efflux inhibitor, EC50 run 24-Apr-2020) was 75.89% and 83.80%, the “% Well Effect” value ([2]; 3 uM, plus 0.5 uM efflux inhibitor, EC50 run 22-may-2020) was 87.68% and the “% Well Effect” value ([2]; 3 uM, plus 0.5 uM efflux inhibitor, EC50 run 24-Apr-2020) was 59.97%. For the same compound, the “% Well Effect” value ([2]; 3.00053 uM, minus efflux inhibitor, EC50 run 3-Apr-2020) was 99.82% and 106.83% and 102.14% and 104.18%, the “% Well Effect” value ([2]; 9.48767 uM, minus efflux inhibitor, EC50 run 3-Apr-2020) was 101.96% and 104.70% and 102.25% and 105.36% and the “% Well Effect” value ([2]; 30 uM, minus efflux inhibitor, EC50 run 3-Apr-2020) was 102.99% and 107.66% and 105.96% and 105.84%. The “% Well Effect” value [3] was 0.795%.
With `COc1cccc2[nH]c(C(=O)N[C@@H](CC(C)C)C(=O)N[C@@H](C[C@@H]3CCNC3=O)C(=O)COP(=O)(O)O)cc12` [PF-07304814] the IC50 [4] was 202 µM and > 130 µM, the activity at 0.01 µM ([5]; 30-Minute Preincubation) was 99.4% and the activity at 0.01 µM ([5]; Zero-Minute Preincubation) was 102%. It also gave an activity at 0.158 µM ([5]; 30-Minute Preincubation) of 102%, an activity at 0.158 µM ([5]; Zero-Minute Preincubation) of 99.1% and an activity at 0.398 µM ([5]; 30-Minute Preincubation) of 101%. For the same compound, the activity at 0.398 µM ([5]; Zero-Minute Preincubation) was 99.3%, the activity at 1 µM ([5]; 30-Minute Preincubation) was 99.2% and the activity at 1 µM ([5]; Zero-Minute Preincubation) was 100%. For the same compound, the activity at 15.8 µM ([5]; 30-Minute Preincubation) was 97.5%, the activity at 15.8 µM ([5]; Zero-Minute Preincubation) was 102% and the activity at 39.8 µM ([5]; 30-Minute Preincubation) was 97%. It also gave an activity at 39.8 µM ([5]; Zero-Minute Preincubation) of 100%, an activity at 100 µM ([5]; 30-Minute Preincubation) of 99.2% and an activity at 100 µM ([5]; Zero-Minute Preincubation) of 101%. It also gave an EC50 ([2]; Human coronavirus 229E, MRC5, read-out: EC50 GeoMean (95% CI), efflux inhibitor CP-100356: 0) of 74 nM, an EC50 ([2]; Human coronavirus 229E, MRC5, read-out: EC50 GeoMean (95% CI), efflux inhibitor CP-100356: 0.5 μM) of 58 nM and an EC50 ([2]; MRC-5, plus 0.5 uM efflux inhibitor, one value per run date (N=3), read-out: EC50) of 81.8 nM. For the same compound, the fraction unbound at 6 h, 3.44 uM ([6]; both, Cynomologous, cynomolgus monkey, pH 7.4, Individual fraction unbound, Cynomologous, male and female, Day 1) was 0.388, the fraction unbound at 6 h, 3.44 uM ([6]; both, Cynomologous, cynomolgus monkey, pH 7.4, Individual fraction unbound, Cynomologous, male and female, Day 2) was 0.356 and the fraction unbound at 6 h, 3.44 uM ([6]; both, Cynomologous, cynomolgus monkey, pH 7.4, Individual fraction unbound, Cynomologous, male and female, Day 3) was 0.442. For the same compound, the Individual fraction unbound ([6]; Cynomologous, male and female, Day 1) was 0.366 and 0.39 and 0.393, the Individual fraction unbound ([6]; Cynomologous, male and female, Day 2) was 0.318 and 0.315 and 0.319 and the Individual fraction unbound ([6]; Cynomologous, male and female, Day 3) was 0.37 and 0.354 and 0.347. For the same compound, the fraction unbound at 6 h, 3.44 uM ([6]; monkey, pH 7.4, fraction unbound Geomean, n=12) was 0.361, the CC50 [7] was over 100 µM and the IC50 [8] was 134 µM and > 130 µM. The “time-dependent inhibition (TDI) signal” value [9] was “no evidence of TDI”, the solubility at 48 h ([10]; deionized water and pH buffers) was over 200 mg/mL and the solubility at 48 h ([10]; deionized water and pH buffers (aqueous)) was 200 mg/mL (≈ 362 mM).
